Assay results as given in patent US7585886B2, “Pyrrolidine derivative or salt thereof” (Astellas Pharma Inc., priority 2005, dated 2009).
Counter-ions that a name gives are not always drawn. Like-named read-outs stand apart in the source and are kept apart here.

Tests used:
human CaSR = target: T1, human CaSR (Homo sapiens, UniProt P41180); test: Human calcium sensing receptor (CaSR) agonistic activity test (FLIPR, Fluo-3 intracellular Ca2+); assay type: cell-based
T1 construct: human CaSR open reading frame (ORF) was contained in the pcDNA3.1/Zeo(+) vector; expressed in transfected cells
T1 sequence (P41180 20-1078): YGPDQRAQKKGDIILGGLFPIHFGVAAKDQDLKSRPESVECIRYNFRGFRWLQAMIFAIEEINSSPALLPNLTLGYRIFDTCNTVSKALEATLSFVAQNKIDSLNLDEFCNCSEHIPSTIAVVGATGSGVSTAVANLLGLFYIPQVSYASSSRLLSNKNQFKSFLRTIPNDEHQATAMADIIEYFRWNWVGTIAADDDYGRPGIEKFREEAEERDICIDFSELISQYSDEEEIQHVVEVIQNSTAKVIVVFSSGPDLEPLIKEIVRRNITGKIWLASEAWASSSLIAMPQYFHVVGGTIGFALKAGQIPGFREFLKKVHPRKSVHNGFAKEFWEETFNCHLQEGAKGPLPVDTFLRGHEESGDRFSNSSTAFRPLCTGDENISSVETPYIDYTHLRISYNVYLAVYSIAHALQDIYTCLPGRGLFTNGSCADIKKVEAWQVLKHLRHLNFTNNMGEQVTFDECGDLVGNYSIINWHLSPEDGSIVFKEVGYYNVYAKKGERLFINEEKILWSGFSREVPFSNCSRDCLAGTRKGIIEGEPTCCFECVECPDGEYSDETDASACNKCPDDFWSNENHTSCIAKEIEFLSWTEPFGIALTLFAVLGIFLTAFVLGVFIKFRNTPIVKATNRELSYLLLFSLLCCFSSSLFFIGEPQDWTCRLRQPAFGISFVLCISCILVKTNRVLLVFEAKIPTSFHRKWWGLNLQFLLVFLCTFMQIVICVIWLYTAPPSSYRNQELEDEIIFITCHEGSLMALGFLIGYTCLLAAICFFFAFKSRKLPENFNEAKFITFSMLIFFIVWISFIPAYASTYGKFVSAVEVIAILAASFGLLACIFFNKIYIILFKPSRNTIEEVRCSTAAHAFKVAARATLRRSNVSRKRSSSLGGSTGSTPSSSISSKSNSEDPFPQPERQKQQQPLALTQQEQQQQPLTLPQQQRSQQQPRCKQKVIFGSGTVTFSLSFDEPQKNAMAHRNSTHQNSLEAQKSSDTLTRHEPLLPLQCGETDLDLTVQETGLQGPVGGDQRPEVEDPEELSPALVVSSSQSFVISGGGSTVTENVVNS
Text: Test 1. Human Calcium Sensing Receptor (CaSR) Agonistic Activity Test
• 1) Preparation of Human CaSR Expression Vector
A DNA fragment coding for human CaSR was cloned in the standard method. Illustratively, using 203 to 2387 of NM_000388 as a DNA fragment D4, and 2210 to 3633 as a DNA fragment B2, they were amplified using a human kidney cDNA (mfd. by Invitrogen) as the template and using a DNA polymerase (a registered trade name: Pyrobest, mfd. by Takara Bio), and respectively cloned into a pCR2.1 vector using a pCR2.1-Topo vector (mfd. by Invitrogen). Next, DNA fragments prepared by digesting pCR2.1-D4 with SpeI and XbaI were inserted into the same sites of pcDNA3.1/Zeo(+) vector. Successively, the fragments prepared by digesting pCR2.1-B2 with SacI and XbaI were inserted into the SacI and XbaI sites of previously prepared pcDNA3.1/Zeo(+)-D4 (SpeI-XbaI), thereby obtaining a human CaSR expression vector pcDNA3.1/Zeo(+)-hCaSR in which human CaSR open reading frame (ORF) was contained in the pcDNA3.1/Zeo(+) vector. • 2) Preparation of Human CaSR Expression Cell
The human CaSR expression vector was transferred into HEK 293 cell using a transfection reagent (registered trademark: FuGene 6, mfd. by Roche Diagnostics). After the gene transfer, this was cultured in DMEM (mfd. by Invitrogen) medium containing 40 μg/ml Zeocin (registered trademark) (mfd. by Invitrogen) and 10% fetal bovine serum at 37° C. for 2 weeks in the presence of 5% CO2, thereby obtaining Zeocin-resistant clones. An human CaSR stably expressing HEK 293 clone was obtained from these clones by selection using the responsiveness to extracellular Ca^2+ as the index. • 3) Human CaSR Agonistic Activity Test
The HEK 293 cell stably expressing human CaSR was inoculated into a poly-D-lysine-coated black clear bottom 96 well plate (mfd. by BD Bioscience). Hanks' balanced salt solution (HBSS) (Ca^2+ (−), Mg^2+ (−), mfd. by Invitrogen) containing 20 mM HEPES (2-[4-(2-hydroxyethyl)-1-piperazinyl]ethanesulfonic acid) buffer (pH 7.4), 2.5 mM probenecid (mfd. by Sigma) and 0.1% bovine serum albumin was prepared as a washing buffer. After the inoculation and subsequent overnight culturing, the medium was discarded, the washing buffer supplemented with 1 mM CaCl2 and 10 μM Fluo-3 AM (trade name, mfd by DOJINDO) was added thereto in 100 μl per well portions, and then the incubation was carried out at 37° C. for 1Hour in the presence of 5% CO2. This was washed twice with 200 μl of the washing buffer, replaced by 100 μl of the washing buffer supplemented with 0.5 mM CaCl2 and allowed to stand still for 10 minutes, and then the responsiveness to each compound to be evaluated was detected using a plate reader for fluorometry image analysis use (registered trademark: FLIPR, mfd. by Molecular Devices). In this connection, the compound to be evaluated was used by optionally diluting with the washing buffer supplemented with 0.5 mM Ca^2+.
The human CaSR agonistic activity strength of each compound to be evaluated was calculated by defining the solvent group as 0% and the 2 mM Ca^2+ in final concentration group as 100%, and the compound concentration showing 50% activity (EC50) was calculated from a concentration-activity curve by the method of least squares.

CYP2D6 [1] = target: T2, CYP2D6 (Homo sapiens, UniProt P10635); test: Human CYP2D6 inhibition test (fluorescence substrate AMMC); assay type: in vitro ADME; design: purchased BD Gentest 456217
Protocol: Test 3. Human CYP2D6 Inhibition Test
Inhibitory activity evaluation for CYP2D6 was carried out by measuring it in accordance, roughly, with a reference (“Drug Metabolism and Disposition”, 2001, vol. 29, p. 1196-1200).
Final concentrations of the reagents in the enzyme reaction solution were respectively ser to CYP2D6=[…] (mfd. by BD Gentest, Cat. No.: 456217), reduced type nicotinamide adenine dinucleotide phosphate (NADPH) regeneration system (0.0081 mM nicotinamide adenine dinucleotide phosphate (NADP+), 0.41 mM glucose-6-phosphate, 0.41 mM MgCl2, […] glucose-6-phosphate dehydrogenase), and a fluorescence substrate AMMC=1.5 μM, 100 mM potassium phosphate buffer (pH 7.4). Each compound was made into a 50% acetonitrile solution and added to the enzyme reaction solution (acetonitrile final concentration 2.5%). The enzyme reaction was carried out at 37° C. for 30 minutes, the reaction was stopped using a stopping liquid (0.1 M tris(hydroxymethyl)aminomethane (Tris-base):acetonitrile=20:80), and then fluorescence intensity was measured. The concentration showing 50% inhibition (IC50) was calculated from the thus obtained fluorescence intensity, by defining the enzyme activity at the time of no compound addition as 100%.

[2] = Measurement of rat plasma calcium concentration after single oral administration; assay type: in vivo; conditions: normal male rats, 3 mg/kg oral administration
Protocol: Test 2. Measurement of Rat Plasma Calcium Concentration and Plasma PTH Concentration
The compounds of the invention were administered to rats, and their influences upon the plasma calcium concentration and plasma PTH concentration were examined. The test was carried out by single oral administration of the compounds 5 or 6 normal male rats.
As a vehicle group, an MC solution prepared by adding 0.5% methyl cellulose (MC) solution or ethanol to a final concentration of 5% was administered at a dose of 5 ml/kg. As the comparative control, cinacalcet was dissolved in the MC solution and administered at a dose of 3 mg/kg. Each of the compounds, of the invention was dissolved or suspended the MC solution, or dissolved in ethanol and then diluted with the MC solution as occasion demands, and administered at a dose of 1, 3 or 10 mg/kg.
Blood samples were collected from the orbital venous plexus under ether anesthesia before the administration and 2Hours, 4Hours, or 8Hours in some cases, after the administration, and the plasma calcium concentration was measured using Calcium E-Test Wako (mfd. by Wako Pure Chemical Industries), and the plasma PTH concentration using Rat Intact PTH ELISA Kit (mfd. by Immutopics) or Rat Bioactive Intact PTH ELISA Kit (mfd. by Immutopics).

CYP2D6 [3] = target: T2, CYP2D6; conditions: reported, Non-patent Reference 4; cited from earlier work
[4] = HEK 293 cell stably expressing human CaSR, 0.5 mM Ca2+ buffer, solvent group 0%, 2 mM Ca2+ group 100%, read-out: EC50 (compound concentration showing 50% activity), human CaSR agonistic activity
[5] = recombinant CYP2D6, AMMC 1.5 μM, 37° C. 30 minutes, read-out: IC50 (concentration showing 50% inhibition), CYP2D6

T2 sequence (P10635 whole entry): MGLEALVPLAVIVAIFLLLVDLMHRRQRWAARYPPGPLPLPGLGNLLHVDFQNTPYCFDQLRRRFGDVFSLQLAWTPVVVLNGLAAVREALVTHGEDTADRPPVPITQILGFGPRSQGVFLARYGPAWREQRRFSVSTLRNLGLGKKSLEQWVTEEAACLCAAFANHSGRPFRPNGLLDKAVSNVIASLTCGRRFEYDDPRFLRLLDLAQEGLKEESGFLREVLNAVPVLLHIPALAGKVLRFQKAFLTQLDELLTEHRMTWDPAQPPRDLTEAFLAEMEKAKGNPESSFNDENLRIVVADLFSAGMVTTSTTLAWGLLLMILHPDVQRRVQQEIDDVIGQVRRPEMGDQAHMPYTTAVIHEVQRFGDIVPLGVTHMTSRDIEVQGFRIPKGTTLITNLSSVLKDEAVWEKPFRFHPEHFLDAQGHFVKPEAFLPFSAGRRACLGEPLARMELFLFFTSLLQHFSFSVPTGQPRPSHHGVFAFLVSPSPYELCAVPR

| SMILES | EC50 (human CaSR; [4]) | IC50 (CYP2D6 [1]; [5]) | further results |
| --- | --- | --- | --- |
| C[C@@H](NC[C@H]1CN(c2c(F)cc(C(=O)O)cc2F)C[C@@H]1c1ccccc1)c1cccc2ccccc12 [Example 31, 3,5-difluoro-4-[(3S,4S)-3-({[(1R)-1-(1-naphthyl)ethyl]amino}methyl)-4-phenylpyrrolidin-1-yl]benzoic acid hydrochloride] | 3.6 nM |  | IC50 at 30 min (CYP2D6 [1]; human, recombinant CYP2D6 (BD Gentest, Cat. No. 456217), pH 7.4, probe AMMC 1.5 μM, recombinant CYP2D6, AMMC 1.5 μM, 37° C. 30 minutes, read-out: IC50 (concentration showing 50% inhibition), CYP2D6): ≥ 6000 nM |
| C[C@@H](NC[C@H]1CN(C(=O)Oc2ccc(C(=O)O)cc2)C[C@@H]1c1ccccc1)c1cccc2ccccc12.Cl [Example 33, 4-({[(3S,4S)-3-({[(1R)-1-(1-naphthyl)ethyl]amino}methyl)-4-phenylpyrrolidin-1-yl]carbonyl}oxy)benzoic acid hydrochloride] |  |  | EC50 (human CaSR): 2.3 nM; Rat plasma calcium concentration reducing ratio (%) 4 hours after administration [2]: 21% |
| C[C@@H](NC[C@H]1CN(C(=O)Nc2ccc(C(=O)O)cc2)C[C@@H]1c1ccccc1)c1cccc2ccccc12 [Example 41, 4-({[(3S,4S)-3-({[(1R)-1-(1-naphthyl)ethyl]amino}methyl)-4-phenylpyrrolidin-1-yl]carbonyl}amino)benzoic acid hydrochloride] | 4.9 nM | ≥ 6000 nM |  |
| COc1cc(C(=O)O)ccc1NC(=O)N1C[C@H](CN[C@H](C)c2cccc3ccccc23)[C@@H](c2ccccc2)C1 [Example 45, 3-methoxy-4-({[(3S,4S)-3-({[(1R)-1-(1-naphthyl)ethyl]amino}methyl)-4-phenylpyrrolidin-1-yl]carbonyl}amino)benzoic acid hydrochloride] | 3.1 nM | ≥ 6000 nM |  |
| C[C@@H](NC[C@H]1CN(C(=O)CCCCC(=O)O)C[C@@H]1c1cccc(C(F)(F)F)c1)c1cccc2ccccc12 [Example 48, 6-{(3S,4S)-3-({[(1R)-1-(1-naphthyl)ethyl]amino}methyl)-4-[3-(trifluoromethyl)phenyl]pyrrolidin-1-yl}-6-oxohexanoic acid hydrochloride] | 4 nM |  |  |
| C[C@@H](NC[C@H]1CN(C(=O)c2ccc(-c3ccsc3C(=O)O)o2)C[C@@H]1c1ccccc1)c1cccc2ccccc12 [Example 98] | 5.2 nM | ≥ 6000 nM |  |
| C[C@@H](NC[C@H]1CN(C(=O)CC(C)(C)CC(=O)O)C[C@@H]1c1ccccc1)c1cccc2ccccc12 [Example 109] | 28 nM | ≥ 6000 nM | Rat plasma calcium concentration reducing ratio (%) 4 hours after administration [2]: 17% |
| C[C@@H](NC[C@H]1CN(c2ccc(-c3nnn[nH]3)cc2)C[C@@H]1c1ccccc1)c1cccc2ccccc12 [Example 130] | 15 nM |  |  |
| Cc1cccc([C@H]2CN(c3c(F)cc(C(=O)O)cc3F)C[C@@H]2CN[C@H](C)c2cccc3ccccc23)c1 [Example 171] | 16 nM |  | Rat plasma calcium concentration reducing ratio (%) 4 hours after administration [2]: 20% |
| C[C@@H](NC[C@H]1CN(C(=O)Oc2ccc(C(=O)O)cc2)C[C@@H]1c1cccc(F)c1)c1cccc2ccccc12 [Example 174] |  |  | EC50 (human CaSR): 3.4 nM |
| C[C@@H](NC[C@H]1CN(C(=O)Oc2ccc(C(=O)O)cc2)C[C@@H]1c1cccc(F)c1F)c1cccc2ccccc12 [Example 179] |  |  | EC50 (human CaSR): 0.77 nM; IC50 (CYP2D6 [1]): ≥ 6000 nM |
| COc1cc(C(=O)O)ccc1NC(=O)N1C[C@H](CN[C@H](C)c2cccc3ccccc23)[C@@H](c2cccc(C)c2)C1 [Example 183] | 3.5 nM | ≥ 6000 nM | Rat plasma calcium concentration reducing ratio (%) 4 hours after administration [2]: 20% |
| C[C@@H](NCCCc1cccc(C(F)(F)F)c1)c1cccc2ccccc12 [cinacalcet] |  |  | activity to inhibit CYP2D6 (in words) (CYP2D6 [3]): strong activity to inhibit CYP2D6 |
| CC(NC[C@H]1CN(C(=O)Oc2ccc(C(=O)O)cc2)C[C@@H]1c1ccccc1)c1csc2ccccc12 (stereo partly shown) [compound 53] | 5.2 nM |  |  |
